Laboratory results published in patent publication US7105695B2, “Synthesis of combretastatin A-2 prodrugs” (priority 2001, dated 2006).
In brackets after ≈: the same amount, converted by molar mass. Like-named read-outs stand apart in the source and are kept apart here.

Legend:
mitosis = settings: compared with the Z-isomer (1a); cited from earlier work
bacteria and fungi panel = assay: Broth microdilution screen, whole panel of bacteria and fungi; assay type: cell-based; settings: among the compounds screened, Table III
Text: (§1) Compounds were screened against the bacteria Stenotrophomonas maltophilia, Micrococcus luteus, Staphylococcus aureus, Escherichia coli, Enterobacter cloacae, Enterococcus faecalis, Streptococcus pneumoniae, Neisseria gonorrhoeae, and the fungi Candida albicans and Cryptococcus neoformans, according to established broth microdilution susceptibility assays (NCCLS approved standard M7-A4, 1997; NCCLS approved standard M27-A, 1997). The minimum inhibitory concentration was defined as the lowest concentration of compound that inhibited all visible growth of the test organism (optically clear). Assays were repeated on separate days.

Streptococcus pneumoniae = assay: Broth microdilution susceptibility assay, Streptococcus pneumoniae; assay type: cell-based; settings: read-out: Minimum inhibitory concentration
Text: as §1

DU-145 = assay: Human cancer cell line growth inhibition, prostate DU-145; assay type: cell-based; settings: DU-145 human cancer cell line
KM20L2 = assay: Human cancer cell line growth inhibition, colon KM20L2; assay type: cell-based
NCI 60-cell screen = assay: NCI 60-cell screen; assay type: cell-based, human; settings: mean ± SE, read-out: mean-panel GI50
Cryptococcus neoformans = assay: Broth microdilution susceptibility assay, Cryptococcus neoformans; assay type: cell-based; settings: read-out: Minimum inhibitory concentration
Text: as §1

physchem = settings: 25 °C, water
MCF-7 = assay: Human cancer cell line growth inhibition, breast MCF-7; assay type: cell-based; settings: MCF-7 human cancer cell line
BXPC-3 = assay: Human cancer cell line growth inhibition, pancreas BXPC-3; assay type: cell-based; settings: BXPC-3 human cancer cell line
Neisseria gonorrhoeae = assay: Broth microdilution susceptibility assay, Neisseria gonorrhoeae; assay type: cell-based
Text: as §1

[1] = 25° C.
NCI-H460 = assay: Human cancer cell line growth inhibition, lung-NSC NCI-H460; assay type: cell-based
Micrococcus luteus = assay: Broth microdilution susceptibility assay, Micrococcus luteus; assay type: cell-based; settings: read-out: Minimum inhibitory concentration
Text: as §1

SF5268 = assay: Human cancer cell line growth inhibition, CNS gliob SF5268; assay type: cell-based

Molecule: COc1ccc(C=Cc2cc(OC)c3c(c2)OCO3)cc1O (single isomer, unassigned) [E-isomer of combretastatin A-2]
- antimitotic activity (mitosis): considerably less antimitotic activity

Molecule: COc1ccc(/C=C\c2cc(OC)c3c(c2)OCO3)cc1O [Compound 1a, Combretastatin A-2]
- antimicrobial spectrum (bacteria and fungi panel): broadest antimicrobial spectra
- MIC (Streptococcus pneumoniae): 64 µg/mL (≈ 213 µM)
- GI50 (DU-145; read-out: GI50 Prostrate DU-145): 0.0054 µg/mL (≈ 0.018 µM)
- GI50 (KM20L2; KM-20L2): 0.47 µg/mL (≈ 1.57 µM)
- GI50 (NCI 60-cell screen; Homo sapiens): 83.3 ± 17.3 nM
- MIC (Cryptococcus neoformans): 64 µg/mL (≈ 213 µM)
- solubility (physchem): < 1000 µg/mL
- GI50 (MCF-7; MCF7): 0.0042 µg/mL (≈ 0.014 µM)
- GI50 (BXPC-3): 0.014 µg/mL (≈ 0.0466 µM)
- MIC (Neisseria gonorrhoeae; read-out: Minimum inhibitory concentration): 32 µg/mL (≈ 107 µM)
- Solubility in water [1]: <1000 µg/mL
- GI50 (NCI-H460): 0.043 µg/mL (≈ 0.143 µM)
- MIC (Micrococcus luteus): 64 µg/mL (≈ 213 µM)
- GI50 (SF5268; read-out: GI50 CNSGliob SF5268): 0.0083 µg/mL (≈ 0.0276 µM)

Molecule: Sodium combretastatin A-2 3′-O-phosphate [Compound 2a]
- GI50 Prostrate DU-145 (DU-145): 0.053 µg/mL
- GI50 Colon KM20L2 (KM20L2): 3.8 µg/mL
- GI50 (NCI 60-cell screen): 165 ± 30.7 nM
- GI50 Breast MCF-7 (MCF-7): 0.045 µg/mL
- GI50 Pancreas BXPC-3 (BXPC-3): 2.1 µg/mL
- Minimum inhibitory concentration (Neisseria gonorrhoeae): 8 µg/mL
- Solubility in water [1]: 18000 µg/mL
- GI50 Lung-NSC NCI-H460 (NCI-H460): 0.41 µg/mL
- GI50 CNSGliob SF5268 (SF5268): 0.042 µg/mL
